≈ marks a conversion by molar mass, not a printed value. Calls of active or inactive are those of the source. No cut-off for these calls is given here.
Experiments:
Nakaseomyces glabratus [1] = assay: Antifungal activity against Candida glabrata ATCC 2001 assessed as inhibition of fungal growth incubated for 24 to 48 hrs by CLSI protocol based broth microdilution method; format: functional; conditions: time 24-48 hrs
Pichia kudriavzevii [2] = assay: Antifungal activity against Candida krusei ATCC 20298 assessed as inhibition of fungal growth at highest concentration incubated for 24 to 48 hrs by CLSI protocol based broth microdilution method; format: functional, organism-based; conditions: time 24-48 hrs
Candida albicans [3] = assay: Potency index, ratio of miconazole MIC to test compound MIC for antifungal activity against Candida albicans SC5314 assessed as inhibition of fungal growth incubated for 24 to 48 hrs by CLSI protocol based broth microdilution method; format: functional; conditions: time 24-48 hrs
[4] = Selectivity index, ratio of CC50 for cytotoxicity against […] H9c2 cells to MIC for antifungal activity against Candida tropicalis ATCC 750; format: toxicity, cell-based; conditions: read-out: Selectivity Index
[Candida] auris [5] = Antifungal activity against Candida auris COLO 01 A assessed as inhibition of fungal growth at highest concentration incubated for 24 to 48 hrs by CLSI protocol based broth microdilution method; format: functional, organism-based; conditions: Candidozyma auris, time 24-48 hrs
[6] = biological target: T1, Lanosterol 14-alpha demethylase (Candida albicans (strain SC5314 / ATCC MYA-2876) (Yeast), UniProt P10613); assay: Inhibition of CYP51 in Candida albicans SC5314 assessed as reduction in ergosterol level at 3 fold MIC incubated overnight by spectrophotometric analysis
T1 sequence (P10613 whole entry): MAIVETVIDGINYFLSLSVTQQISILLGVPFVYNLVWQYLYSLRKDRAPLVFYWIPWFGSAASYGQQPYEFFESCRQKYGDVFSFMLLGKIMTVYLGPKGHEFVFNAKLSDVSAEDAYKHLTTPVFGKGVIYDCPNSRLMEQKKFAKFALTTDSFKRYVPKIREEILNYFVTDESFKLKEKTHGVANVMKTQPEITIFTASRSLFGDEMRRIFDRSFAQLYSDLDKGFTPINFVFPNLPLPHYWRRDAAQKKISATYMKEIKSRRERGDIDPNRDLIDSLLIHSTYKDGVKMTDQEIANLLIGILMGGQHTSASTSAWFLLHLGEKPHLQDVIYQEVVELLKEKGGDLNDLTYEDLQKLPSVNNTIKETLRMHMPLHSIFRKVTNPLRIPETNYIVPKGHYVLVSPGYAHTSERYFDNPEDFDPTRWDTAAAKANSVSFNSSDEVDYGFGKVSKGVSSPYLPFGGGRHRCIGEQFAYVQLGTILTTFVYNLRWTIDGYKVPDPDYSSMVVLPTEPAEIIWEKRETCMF

Candida parapsilosis [7] = assay: Antifungal activity against Candida parapsilosis ATCC 22019 assessed as inhibition of fungal growth incubated for 24 to 48 hrs by CLSI protocol based broth microdilution method; format: functional; conditions: Lodderomyces parapsilosis, time 24-48 hrs
Candida tropicalis [8] = assay: Antifungal activity against Candida tropicalis ATCC 750 assessed as inhibition of fungal growth incubated for 24 to 48 hrs by CLSI protocol based broth microdilution method; format: functional; conditions: time 24-48 hrs
Candida albicans [9] = assay: Antifungal activity against Candida albicans SC5314 assessed as inhibition of fungal growth incubated for 24 to 48 hrs by CLSI protocol based broth microdilution method; format: functional; conditions: time 24-48 hrs
[10] = Cytotoxicity against H9c2 cells assessed as inhibition of cell proliferation incubated for 72 hrs by resazurin dye based microplate reader analysis; format: toxicity; conditions: rat
[11] = Selectivity index, ratio of CC50 for cytotoxicity against […] H9c2 cells to MIC for antifungal activity against Candida parapsilosis ATCC 22019; format: toxicity, cell-based; conditions: read-out: Selectivity Index
[12] = Selectivity index, ratio of CC50 for cytotoxicity against […] H9c2 cells to MIC for antifungal activity against Cryptococcus gattii ATCC 24065; format: toxicity, cell-based; conditions: rat, read-out: Selectivity Index
[13] = Selectivity index, ratio of CC50 for cytotoxicity against […] H9c2 cells to MIC for antifungal activity against Candida glabrata ATCC 2001; format: toxicity, cell-based; conditions: rat, read-out: Selectivity Index
[14] = Antifungal activity against Cryptococcus gattii ATCC 24065 assessed as inhibition of fungal growth incubated for 24 to 48 hrs by CLSI protocol based broth microdilution method; format: functional, Cryptococcus gattii VGI; conditions: time 24-48 hrs
[15] = Selectivity index, ratio of CC50 for cytotoxicity against […] H9c2 cells to MIC for antifungal activity against Candida albicans SC5314; format: toxicity, cell-based; conditions: read-out: Selectivity Index
[Candida] auris [16] = Antifungal activity against Candida auris COLO 01 A assessed as inhibition of fungal growth incubated for 24 to 48 hrs by CLSI protocol based broth microdilution method; format: functional; conditions: Candidozyma auris, time 24-48 hrs
Candida tropicalis [17] = assay: Antifungal activity against Candida tropicalis ATCC 750 assessed as inhibition of fungal growth at highest concentration incubated for 24 to 48 hrs by CLSI protocol based broth microdilution method; format: functional, organism-based; conditions: time 24-48 hrs
Candida parapsilosis [18] = assay: Antifungal activity against Candida parapsilosis ATCC 22019 assessed as inhibition of fungal growth at highest concentration incubated for 24 to 48 hrs by CLSI protocol based broth microdilution method; format: functional, organism-based; conditions: time 24-48 hrs
[19] = Selectivity index, ratio of CC50 for cytotoxicity against […] H9c2 cells to MIC for antifungal activity against Candida auris COLO 01 A; format: toxicity, cell-based; conditions: read-out: Selectivity Index
Candida albicans [20] = assay: Antifungal activity against Candida albicans SC5314 assessed as inhibition of fungal growth at highest concentration incubated for 24 to 48 hrs by CLSI protocol based broth microdilution method; format: functional, organism-based; conditions: time 24-48 hrs
[Candida] auris [21] = Potency index, ratio of miconazole MIC to test compound MIC for antifungal activity against Candida auris COLO 01 A assessed as inhibition of fungal growth incubated for 24 to 48 hrs by CLSI protocol based broth microdilution method; format: functional, Candidozyma auris; conditions: time 24-48 hrs
[Candida] auris [22] = Potency index, ratio of fluconazole MIC to test compound MIC for antifungal activity against Candida auris COLO 01 A assessed as inhibition of fungal growth incubated for 24 to 48 hrs by CLSI protocol based broth microdilution method; format: functional, Candidozyma auris; conditions: time 24-48 hrs
Nakaseomyces glabratus [23] = assay: Antifungal activity against Candida glabrata ATCC 2001 assessed as inhibition of fungal growth at highest concentration incubated for 24 to 48 hrs by CLSI protocol based broth microdilution method; format: functional, organism-based; conditions: time 24-48 hrs
Cryptococcus gattii VGI = assay: Antifungal activity against Cryptococcus gattii ATCC 24065 assessed as inhibition of fungal growth at highest concentration incubated for 24 to 48 hrs by CLSI protocol based broth microdilution method; format: functional; conditions: time 24-48 hrs
[24] = biological target: T1, Lanosterol 14-alpha demethylase; assay: Inhibition of CYP51 in Candida albicans SC5314 assessed as reduction in ergosterol level at 2 fold MIC incubated overnight by spectrophotometric analysis
Pichia kudriavzevii [25] = assay: Antifungal activity against Candida krusei ATCC 20298 assessed as inhibition of fungal growth incubated for 24 to 48 hrs by CLSI protocol based broth microdilution method; format: functional; conditions: time 24-48 hrs

Compound | MIC (Nakaseomyces glabratus [1]) [µM] | Activity (Pichia kudriavzevii [2]) | Activity ([Candida] auris [5]) | CC50 at 72 h [10] [µM] | MIC [14] [µM] | Activity (Candida tropicalis [17]) | Activity (Candida parapsilosis [18]) | Activity (Candida albicans [20]) | Activity (Nakaseomyces glabratus [23]) | Activity (Cryptococcus gattii VGI) | other results
C=CCc1ccc(OCC(Cn2ccnc2)OC(=O)c2ccc(Cl)cc2)c(OC)c1 (centres undefined) | 36.5 (≈ 15.6 µg/mL) | inactive | inactive | 129 | 73.2 (≈ 31.2 µg/mL) |  |  |  |  |  | Ratio (Candida albicans [3]): 32; selectivity ratio [4]: 1.8; inhibition (INH) [6]: Active; MIC (Candida parapsilosis [7]): 73.2 µM (≈ 31.2 µg/mL); MIC (Candida tropicalis [8]): 73.2 µM (≈ 31.2 µg/mL); MIC (Candida albicans [9]): 4.6 µM (≈ 1.96 µg/mL); selectivity ratio [11]: 1.8; selectivity ratio [12]: 1.8; selectivity ratio [13]: 3.5; selectivity ratio [15]: 28.2
CCCc1ccc(OCC(Cn2ccnc2)OC(=O)c2ccc(Cl)cc2)c(OC)c1 (centres undefined) | 36.4 (≈ 15.6 µg/mL) | inactive |  | 35.5 | 72.7 (≈ 31.2 µg/mL) | inactive | inactive | inactive |  |  | MIC ([Candida] auris [16]): 36.4 µM (≈ 15.6 µg/mL); selectivity ratio [19]: 0.9; selectivity ratio [12]: 0.5; selectivity ratio [13]: 0.9; Ratio ([Candida] auris [21]): 2; Ratio ([Candida] auris [22]): >5
C=CCc1ccc(OCC(O)Cn2ccnc2)c(OC)c1 (centres undefined) |  | inactive | inactive | 644 |  | inactive | inactive | inactive | inactive | inactive | 
CCCc1ccc(OCC(O)Cn2cncn2)c(OC)c1 (centres undefined) |  | inactive | inactive | 553 |  | inactive | inactive | inactive | inactive | inactive | 
C=CCc1ccc(OCC(O)Cn2cncn2)c(OC)c1 (centres undefined) |  | inactive | inactive | 541 |  | inactive | inactive | inactive | inactive | inactive | 
CCCc1ccc(OCC(Cn2cncn2)OCc2ccc(Cl)cc2)c(OC)c1 (centres undefined) |  | inactive | inactive | 40.1 |  | inactive | inactive | inactive | inactive | inactive | 
OC(Cn1cncn1)(Cn1cncn1)c1ccc(F)cc1F [FLUCONAZOLE] | 13.1 (≈ 4.01 µg/mL) |  |  |  | 13.1 (≈ 4.01 µg/mL) |  |  |  |  |  | MIC ([Candida] auris [16]): 209 µM (≈ 64 µg/mL); inhibition (INH) [6]: Active; MIC (Candida parapsilosis [7]): 3.3 µM (≈ 1.01 µg/mL); MIC (Candida tropicalis [8]): 0.8 µM (≈ 0.245 µg/mL); MIC (Candida albicans [9]): 1.6 µM (≈ 0.49 µg/mL); inhibition (INH) [24]: Active; MIC (Pichia kudriavzevii [25]): 104 µM (≈ 32 µg/mL)

— ChEMBL document CHEMBL5370521, “New miconazole-based azoles derived from eugenol show activity against Candida spp. and Cryptococcus gattii by inhibiting the fungal ergosterol biosynthesis” (Eur J Med Chem, 2023)
